Source: ChEMBL document CHEMBL1909281, “FDA-approved drug labeling for the study of drug-induced liver injury” (Drug Discov Today, 2011)

tested on: Hepatotoxicity; assay: FDA Liver Toxicity Knowledge Base Benchmark Dataset (LTKB-BD) drugs of most concern for DILI; conditions: not given

Row | Structure (SMILES) | LTKB_BD DILI severity score
1 | CC(CCc1ccccc1)NCC(O)c1ccc(O)c(C(N)=O)c1 (configuration not stated) [LABETALOL] | 8
2 | Nc1ccn([C@@H]2CS[C@H](CO)O2)c(=O)n1 [LAMIVUDINE] | 8
3 | CS(=O)(=O)CCNCc1ccc(-c2ccc3ncnc(Nc4ccc(OCc5cccc(F)c5)c(Cl)c4)c3c2)o1 [LAPATINIB] | 8
4 | Cc1oncc1C(=O)Nc1ccc(C(F)(F)F)cc1 [LEFLUNOMIDE] | 8
5 | Cc1nnc(C(C)C)n1[C@@H]1C[C@H]2CC[C@@H](C1)N2CC[C@H](NC(=O)C1CCC(F)(F)CC1)c1ccccc1 [MARAVIROC] | 3
6 | CN(Cc1cnc2nc(N)nc(N)c2n1)c1ccc(C(=O)N[C@@H](CCC(=O)O)C(=O)O)cc1 [METHOTREXATE] | 3
7 | C[C@](N)(Cc1ccc(O)c(O)c1)C(=O)O [METHYLDOPA] | 8
8 | O=C1CC[C@@]2(O)[C@H]3Cc4ccc(O)c5c4[C@@]2(CCN3CC2CC2)[C@H]1O5 [NALTREXONE] | 3
9 | CCc1nn(CCCN2CCN(c3cccc(Cl)c3)CC2)c(=O)n1CCOc1ccccc1 [NEFAZODONE] | 8
10 | Cc1ccnc2c1NC(=O)c1cccnc1N2C1CC1 [NEVIRAPINE] | 8
11 | CCCCCCCCCCC[C@@H](C[C@@H]1OC(=O)[C@H]1CCCCCC)OC(=O)[C@H](CC(C)C)NC=O [ORLISTAT] | 8
12 | C[C@]12COC(=O)C[C@@H]1CC[C@@H]1[C@@H]2CC[C@@]2(C)[C@H]1CC[C@]2(C)O [OXANDROLONE] | 8
13 | C[C@]12C/C(=C/O)C(=O)C[C@@H]1CC[C@@H]1[C@@H]2CC[C@@]2(C)[C@H]1CC[C@]2(C)O [OXYMETHOLONE] | 8
14 | CO[C@H]1/C=C/O[C@@]2(C)Oc3c(C)c(O)c4c(O)c(c(/C=N/N5CCN(C)CC5)c(O)c4c3C2=O)NC(=O)/C(C)=C\C=C\[C@H](C)[C@H](O)[C@@H](C)[C@@H](O)[C@@H](C)[C@H](OC(C)=O)[C@@H]1C [RIFAMPIN] | 8
15 | CC(C)c1nc(CN(C)C(=O)N[C@H](C(=O)N[C@@H](Cc2ccccc2)C[C@H](O)[C@H](Cc2ccccc2)NC(=O)OCc2cncs2)C(C)C)cs1 [RITONAVIR] | 5
16 | Cc1cn([C@H]2C=C[C@@H](CO)O2)c(=O)[nH]c1=O [STAVUDINE] | 8
17 | CN(N=O)C(=O)N[C@@H](C=O)[C@@H](O)[C@H](O)[C@H](O)CO [STREPTOZOCIN] | 3
18 | Cc1cc(NS(=O)(=O)c2ccc(N)cc2)no1 [SULFAMETHOXAZOLE] | 7
19 | CCN(CC)CCNC(=O)c1c(C)[nH]c(/C=C2\C(=O)Nc3ccc(F)cc32)c1C [SUNITINIB] | 8
20 | C[C@H](Cn1cnc2c(N)ncnc21)OCP(=O)(O)O [TENOFOVIR ANHYDROUS] | 8
21 | CN(C/C=C/C#CC(C)(C)C)Cc1cccc2ccccc12 [TERBINAFINE] | 8
22 | COc1cc(C(=O)NS(=O)(=O)c2ccccc2C)ccc1Cc1cn(C)c2ccc(NC(=O)OC3CCCC3)cc12 [ZAFIRLUKAST] | 8
23 | Cc1cn([C@H]2C[C@H](N=[N+]=[N-])[C@@H](CO)O2)c(=O)[nH]c1=O [ZIDOVUDINE] | 8
24 | CC(c1cc2ccccc2s1)N(O)C(N)=O (configuration not stated) [ZILEUTON] | 5

same assay, conditions: Liver

Row | Structure (SMILES) | LTKB_BD DILI severity score
25 | Sc1ncnc2nc[nH]c12 [MERCAPTOPURINE ANHYDROUS] | 8
26 | O=C1CN(/N=C/c2ccc([N+](=O)[O-])o2)C(=O)N1 [NITROFURANTOIN] | 8
27 | CNCCC=C1c2ccccc2CCc2ccccc21 [NORTRIPTYLINE] | 8
28 | CCCc1cc(=O)[nH]c(=S)[nH]1 [PROPYLTHIOURACIL] | 8
29 | Nc1c2c(nc3ccccc13)CCCC2 [TACRINE] | 7
30 | Clc1ccccc1CN1CCc2sccc2C1 [TICLOPIDINE] | 4
31 | Cc1ccc(C(=O)c2cc(O)c(O)c([N+](=O)[O-])c2)cc1 [TOLCAPONE] | 8
32 | Nc1ccn([C@H]2CC[C@@H](CO)O2)c(=O)n1 [ZALCITABINE] | 8
